From patent US20250388604A1, “Compounds and Their Use as PDE4 Activators” (Mironid Limited, priority 2022, published 2025) come the findings set out here.

Assay [1] has as its system m-IMCD3 cells. In words: Inhibition of PGE2-stimulated in vitro cyst formation in m-IMCD3 cells. Type of assay: cell-based, mouse. The settings on record: Mus musculus, mIMCD3, 144 h, 3 μM; mean cyst area, 100% for (DMSO + PGE2) and 0% for DMSO control; 6 days of culture; read-out: % Cyst area after incubation with 3 μM test compound. In short, it runs like this: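 Mean cyst area after 6 days, expressed relative to DMSO+PGE2 (100%) and DMSO alone (0%), from z-stack images. Mouse m-IMCD3 spheroids grew in collagen I/Matrigel gels and received PGE2 (100 nM final) with test compound (0.1% DMSO) starting 18–24 h post-plating, media refreshed at day 2 or 3.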

Assay [2] concerns m-IMCD3 cells expressing PDE4 long forms. The assay is described as follows: cAMP levels in PGE2-stimulated 3D m-IMCD3 cell culture media. The settings on record: Mus musculus, mIMCD3; 3 μM test compound; compared to 100% for (DMSO + PGE2); read-out: cAMP level (% of PGE2-stimulated). Type of assay: cell-based. The method, then: HEK 293 and MDCK cells (Public Health England, Cell Culture Collections) were maintained in Dulbecco's Modified Eagle's Medium (DMEM) supplemented with 10% (v/v) fetal bovine serum (FBS) (Seralab), 2 mM L-glutamine and 100 U/mL penicillin streptomycin cocktail (ThermoFisher); termed complete media. Clonal HEK 293 cell lines were maintained in complete media supplemented with 0.6 mg/ml G418 (Enzo Life Sciences). Mouse inner medullary collecting duct (m-IMCD3) cells [American Type Culture Collection (ATCC)] were maintained in media consisting of DMEM/Hams F-12 50/50 Mix (DMEM F12; Corning) supplemented with penicillin streptomycin cocktail (100 U/mL) and FBS (10% v/v) (DMEM F12-10% FBS).
Activation of intracellular PDE4 long forms leads to a reduction of both intracellular cAMP and externalised cAMP (Omar et al., PNAS 116: 13320-13329, 2019). This reduction may be measured in the cell culture media supernatant of 3D cystic cell cultures, such as in the m-IMCD3 cell cyst suppression assay described in Experiment 3.
Following the completion of the m-IMCD3 cell cyst suppression assay (Experiment 3), the cAMP level in the assay media from individual or pooled assay wells was measured using a cAMP ELISA kit (Enzo Life Sciences) or a LANCE Ultra cAMP kit (PerkinElmer) according to the manufacturer's instructions.
On the technique in general: Cyclic AMP is a second messenger, typically raised through Gs and lowered through Gi signalling.

Assay [3] deals with T1, human PDE4D5 (long isoform) (Homo sapiens, UniProt Q08499).
T1 construct: Using Full-Length Human PDE4 Isoforms; Long Forms PDE4D5, PDE4C3, PDE4B1 and Short Form PDE4B2; made in house; cytosol fraction (100,000 g supernatant) of the cell lysate, not purified
In words: PDE assay, [3H]cAMP two-step radio-assay, PDE4D5 long isoform activation. Format: biochemical. The settings on record: 100 μM test compound; mean % increase in counts over basal activity. The method, then: One suitable method of detecting whether or not a compound is capable of serving as an activator of a PDE4 long form is using a two-step radio-assay procedure described in Experiment 1. In summary, the method involves incubating a PDE4 long form with a test small molecule activator, together with [^3H]-labelled cAMP to assess alterations in the breakdown of cAMP to the 5′-adenosine monophosphate (5′-AMP) product. A sample of the reaction mixture from such an incubation is subsequently treated with snake venom 5′-nucleotidase to allow conversion of the nucleotide [^3H]-labelled 5′-AMP to the uncharged nucleoside [^3H]-labelled adenosine, which can be separated and quantified to assess PDE4 activity and the effect of the test compound (Thompson, W. J. and Appleman, M. M. Biochemistry 10: 311-316, 1971, with some modifications as described in: Marchmont, R. J. and Houslay, M. D. Biochem J. 187: 381-92, 1980). […]
The cell lysate containing recombinant PDE4D5 was transferred into a centrifuge tube and placed into an ultracentrifuge (BECKMAN COULTER) and spun at high speed (100,000 g) for 30 minutes at 4° C. The cytosol fraction was then collected and its protein amount determined using a BCA protein assay. […]

In assay [4] the target is T2, human PDE4B2 (short isoform) (Homo sapiens, UniProt Q07343).
T2 construct: the full length human PDE4B2 short isoform; made in house
The assay is described as follows: PDE assay, [3H]cAMP two-step radio-assay, PDE4B2 short isoform activation. Type of assay: biochemical. The settings on record: 100 μM test compound; mean % increase in counts over basal activity.

T2 sequence (Q07343 1-564 isoform Q07343-2): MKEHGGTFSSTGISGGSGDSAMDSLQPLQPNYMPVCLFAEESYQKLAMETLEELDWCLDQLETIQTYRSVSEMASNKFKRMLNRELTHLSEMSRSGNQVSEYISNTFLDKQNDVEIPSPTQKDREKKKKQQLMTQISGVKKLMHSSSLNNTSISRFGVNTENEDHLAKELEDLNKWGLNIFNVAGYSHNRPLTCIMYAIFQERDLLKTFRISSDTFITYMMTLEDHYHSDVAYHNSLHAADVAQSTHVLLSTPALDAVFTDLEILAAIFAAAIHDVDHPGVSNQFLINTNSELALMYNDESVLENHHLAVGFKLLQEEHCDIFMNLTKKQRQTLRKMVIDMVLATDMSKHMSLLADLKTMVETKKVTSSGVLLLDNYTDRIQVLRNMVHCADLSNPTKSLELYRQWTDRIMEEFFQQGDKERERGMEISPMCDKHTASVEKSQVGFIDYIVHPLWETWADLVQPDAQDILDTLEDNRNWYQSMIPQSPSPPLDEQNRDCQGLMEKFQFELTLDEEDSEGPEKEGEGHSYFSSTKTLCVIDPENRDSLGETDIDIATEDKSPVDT
T1 sequence (Q08499 1-745 isoform Q08499-6): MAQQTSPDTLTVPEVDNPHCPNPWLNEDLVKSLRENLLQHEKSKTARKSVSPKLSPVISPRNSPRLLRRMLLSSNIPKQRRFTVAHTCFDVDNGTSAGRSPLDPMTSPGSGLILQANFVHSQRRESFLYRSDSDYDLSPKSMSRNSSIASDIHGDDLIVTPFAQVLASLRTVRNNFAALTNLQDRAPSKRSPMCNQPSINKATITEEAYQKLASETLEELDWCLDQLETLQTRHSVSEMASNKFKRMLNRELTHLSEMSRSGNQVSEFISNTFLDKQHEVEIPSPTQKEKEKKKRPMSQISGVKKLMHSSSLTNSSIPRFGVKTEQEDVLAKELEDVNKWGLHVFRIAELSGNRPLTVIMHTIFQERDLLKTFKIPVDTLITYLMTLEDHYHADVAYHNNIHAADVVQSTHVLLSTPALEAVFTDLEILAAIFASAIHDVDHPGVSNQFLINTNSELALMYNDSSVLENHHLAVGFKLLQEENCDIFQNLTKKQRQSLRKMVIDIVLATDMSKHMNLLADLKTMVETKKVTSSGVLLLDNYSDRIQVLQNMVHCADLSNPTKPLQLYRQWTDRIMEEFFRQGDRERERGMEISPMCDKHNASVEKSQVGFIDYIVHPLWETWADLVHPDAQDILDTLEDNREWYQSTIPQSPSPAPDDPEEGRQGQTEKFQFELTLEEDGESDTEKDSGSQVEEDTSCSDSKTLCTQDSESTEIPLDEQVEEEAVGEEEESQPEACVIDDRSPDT

On to `O=C(CC1CCCC1)N1CCc2nc(N3CCN4CCC[C@H]4C3)sc2C1` [Example 271, (S)-2-cyclopentyl-1-(2-(hexahydropyrrolo[1,2-a]pyrazin-2(1H)-yl)-6,7-dihydrothiazolo[5,4-c]pyridin-5(4H)-yl)ethan-1-one], for which the activity at 3 µM was 4% in assay [1] and 42% in assay [2]. Besides, the “% increase in PDE4D5 (long isoform) activity at 100 μM” value in assay [3] is reported as 28%. For the same compound, the “% increase in PDE4B2 (short isoform) activity at 100 μM” value in assay [4] is −15%.
